In ChEMBL document CHEMBL1201862, “PubChem BioAssay data set” (2004):
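In this assay, cells in 96-well plates receive the compound at five concentrations for 48 hours. Endpoints are linearly interpolated between the surrounding concentrations. Abbreviation: GI50, concentration required for 50% inhibition of growth.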 Active and inactive are the calls of the source. No stated cut-off is given here; in the data, active = GI50 up to about 1.1 µM and inactive = higher.

Key:
Assay in all cases: NCI anticancer screen, dose series, 48 h
OVCAR-8 = test system: OVCAR-8
XF498 = test system: XF498
DLD-1 = test system: DLD-1
SNB-19 = test system: SNB-19
M19-MEL = test system: M19-MEL
UACC-62 = test system: UACC-62
LXFL 529 = test system: LXFL 529
KM-20L2 = test system: KM-20L2
EKVX = test system: EKVX
SNB-78 = test system: SNB-78
DMS-114 = test system: DMS-114
CAKI-1 = test system: CAKI-1
SR = test system: SR
Hs-578T = test system: Hs-578T
NCI/ADR-RES = test system: NCI/ADR-RES
MCF7 = test system: MCF7
SK-MEL-2 = test system: SK-MEL-2
DMS-273 = test system: DMS-273
Malme-3M = test system: Malme-3M
HOP-18 = test system: HOP-18

SMILES	GI50 (OVCAR-8)	GI50 (XF498)	GI50 (DLD-1)	GI50 (SNB-19)	GI50 (M19-MEL)	GI50 (UACC-62)	GI50 (LXFL 529)	GI50 (KM-20L2)	GI50 (EKVX)	GI50 (SNB-78)	GI50 (DMS-114)	GI50 (CAKI-1)	GI50 (SR)	GI50 (Hs-578T)	GI50 (NCI/ADR-RES)	GI50 (MCF7)	GI50 (SK-MEL-2)	GI50 (DMS-273)	GI50 (Malme-3M)	GI50 (HOP-18)
COc1ccc(/C=C/C(=O)C(C)(C)C)cc1OC	> 100 µM (inactive)	66.8 µM (inactive)	65.9 µM (inactive)	> 100 µM (inactive)	> 100 µM (inactive)	52.6 µM (inactive)	43.6 µM (inactive)	41.8 µM (inactive)	> 100 µM (inactive)	38 µM (inactive)	39.7 µM (inactive)	78 µM (inactive)								
Cc1cn(C2CC(n3cc(Cn4ccc(=O)[nH]c4=O)nn3)C(CO)O2)c(=O)[nH]c1=O (stereo unspecified)	> 100 µM (inactive)			> 100 µM (inactive)		> 100 µM (inactive)						> 100 µM (inactive)	< 0.01 µM (active)	> 100 µM (inactive)	> 100 µM (inactive)	> 100 µM (inactive)	> 100 µM (inactive)			
Cc1ccc(/N=N/C(C2=NC(=O)CS2)c2nc3ccccc3[nH]2)cc1 (stereo unspecified)	> 100 µM (inactive)	> 100 µM (inactive)	> 100 µM (inactive)	> 100 µM (inactive)	> 100 µM (inactive)	> 100 µM (inactive)	> 100 µM (inactive)	> 100 µM (inactive)	> 100 µM (inactive)		> 100 µM (inactive)	> 100 µM (inactive)	> 100 µM (inactive)					> 100 µM (inactive)	> 100 µM (inactive)	
CC(C)(Br)C(=O)N1CCN(C(c2ccccc2)c2ccccc2)CC1	> 100 µM (inactive)			> 100 µM (inactive)		> 100 µM (inactive)			40.6 µM (inactive)			84.1 µM (inactive)	66.2 µM (inactive)	22.6 µM (inactive)	> 100 µM (inactive)	24.3 µM (inactive)	> 100 µM (inactive)		> 100 µM (inactive)	
C=C(CO)C(=O)OC1CC(=C)C2CC(O)C(C)C2C2OC(=O)C(=C)C12 (stereo unspecified)	27.3 µM (inactive)			22.9 µM (inactive)		16.6 µM (inactive)			40.9 µM (inactive)			19.3 µM (inactive)	19.3 µM (inactive)	18.4 µM (inactive)	44.7 µM (inactive)	18.3 µM (inactive)	16.1 µM (inactive)		21.3 µM (inactive)	
CN1CCC(C(=O)NNc2ccccc2)CC1	9.73 µM (inactive)	> 100 µM (inactive)	12.8 µM (inactive)	> 100 µM (inactive)	13.9 µM (inactive)	2.48 µM (inactive)	0.9 µM (active)	1.69 µM (inactive)	34.5 µM (inactive)	> 100 µM (inactive)	9.31 µM (inactive)	> 20.6 µM (inactive)	7.43 µM (inactive)				9.02 µM (inactive)	3.1 µM (inactive)	22.4 µM (inactive)	> 61.5 µM (inactive)
C#CCCCCC#Cc1ccccc1C(=O)OC	15.5 µM (inactive)	65.8 µM (inactive)	47.2 µM (inactive)	> 100 µM (inactive)		32.7 µM (inactive)		58.2 µM (inactive)	85.1 µM (inactive)		17.3 µM (inactive)		2.28 µM (inactive)				39.7 µM (inactive)	38.3 µM (inactive)	77.6 µM (inactive)	> 100 µM (inactive)
Cc1c2ccccc2c(CO)c2cc(F)c3ccccc3c12	19.6 µM (inactive)	22.1 µM (inactive)	14.8 µM (inactive)	30 µM (inactive)	35.8 µM (inactive)	27.2 µM (inactive)		21.1 µM (inactive)	29.9 µM (inactive)	24 µM (inactive)	18.1 µM (inactive)	25.4 µM (inactive)	27 µM (inactive)				18.5 µM (inactive)	14.8 µM (inactive)	53.8 µM (inactive)	28.5 µM (inactive)
CC1CC(c2ccc([N+](=O)[O-])cc2)=Nc2ccccc2[S+]1[O-] (stereo unspecified)	15.5 µM (inactive)	28.7 µM (inactive)	14.3 µM (inactive)	18.2 µM (inactive)	15.9 µM (inactive)	17.7 µM (inactive)		16.1 µM (inactive)	23.4 µM (inactive)	43.6 µM (inactive)	18.4 µM (inactive)	20.9 µM (inactive)	22.5 µM (inactive)				44.5 µM (inactive)	19 µM (inactive)		
CCCCCCNC(=O)C(C)C1CCC2(C)C=CC(=O)C(C)=C2C1O (stereo unspecified)	> 100 µM (inactive)	> 100 µM (inactive)	> 100 µM (inactive)	> 100 µM (inactive)		> 100 µM (inactive)		> 100 µM (inactive)	> 100 µM (inactive)	> 100 µM (inactive)	45.3 µM (inactive)	> 100 µM (inactive)			> 100 µM (inactive)	> 100 µM (inactive)	> 100 µM (inactive)	> 100 µM (inactive)		> 100 µM (inactive)
COc1cc(OC)cc(N2CCC(c3c(N)nc(N)nc3Cl)CC2)c1	> 100 µM (inactive)	26.3 µM (inactive)	75.7 µM (inactive)	> 100 µM (inactive)	> 100 µM (inactive)	52.6 µM (inactive)	37.8 µM (inactive)	> 100 µM (inactive)	95.3 µM (inactive)	> 100 µM (inactive)		> 100 µM (inactive)					92.3 µM (inactive)	> 100 µM (inactive)	31 µM (inactive)	
CC1(C)C(=O)OC(n2cc(F)c(=O)[nH]c2=O)C1=O (stereo unspecified)	> 100 µM (inactive)	> 100 µM (inactive)	> 100 µM (inactive)	> 100 µM (inactive)	> 100 µM (inactive)	> 100 µM (inactive)	> 100 µM (inactive)	> 100 µM (inactive)	39.1 µM (inactive)	> 100 µM (inactive)	> 100 µM (inactive)						> 100 µM (inactive)		> 100 µM (inactive)	> 100 µM (inactive)
Cc1coc2c1C[C@@]1(C)[C@H](CCC[C@@H]1C)[C@H]2O	35.4 µM (inactive)			> 100 µM (inactive)		69.5 µM (inactive)			58.7 µM (inactive)			44.5 µM (inactive)	14.6 µM (inactive)	71.1 µM (inactive)	24.3 µM (inactive)	52.7 µM (inactive)			18.8 µM (inactive)	
Cc1cc2c(=O)c3ccccc3[nH]c2c(C(N)=O)c1C	> 100 µM (inactive)	> 100 µM (inactive)	> 100 µM (inactive)	> 100 µM (inactive)	> 100 µM (inactive)	> 100 µM (inactive)	> 100 µM (inactive)	> 100 µM (inactive)	> 100 µM (inactive)	> 100 µM (inactive)	> 100 µM (inactive)	> 100 µM (inactive)					> 100 µM (inactive)		> 100 µM (inactive)	> 100 µM (inactive)
Cc1ccc2c(O)cc(-c3ccc(F)cc3)nc2n1	51.1 µM (inactive)			65.9 µM (inactive)		24.1 µM (inactive)			28.7 µM (inactive)			42 µM (inactive)	7.4 µM (inactive)	26.5 µM (inactive)	25.7 µM (inactive)	26.4 µM (inactive)	45.7 µM (inactive)		32.4 µM (inactive)	
